According to article PMC12415213, “A genome-scale drug discovery pipeline uncovers therapeutic targets and a unique p97 allosteric binding site in Schistosoma mansoni” (Proceedings of the National Academy of Sciences of the …, 2025):
Like-named read-outs stand apart in the source and are kept apart here.

Tests used:
[1] = test system: adult S. mansoni; experiment: Dose-response of compounds on adult worms (attachment to culture substrate, EC50); format: cell-based, Schistosoma mansoni
Experimental: (§1) DMSO). All selected compounds were obtained from commercial vendors (Medchemexpress, Selleck Chemicals, Sigma-Aldrich, ApexBio, Tocris, Santa Cruz Biotechnology, and Cayman Chemical Company) (Dataset S4) with […]
the activity of the desired compounds. Roughly 5 adult worm pairs were placed in 3mL Basch medium in a 12-well culture vessel, and incubated at 37° C, 5% CO2 for the length of the experiment. Compound was administered at D0, D1, and D2, media and drug refreshed every 24 hr. Worms were then allowed to remain in culture until D5, where a final assessment of worm attachment to tissue culture substate was made by light microscopy.
Observations on movement and morphology were also recorded. A negative control (0.1% DMSO) and positive control (PZQ; 10 µM in 0.1% DMSO) were included in each experiment, and each experiment was repeated in triplicate for validation. For compounds that caused complete detachment in replicate experiments, the treatment was expanded to three concentrations (10 µM, 5 µM, and 1 µM) following the same treatment schedule and controls as detailed above.
Each titration experiment was performed in triplicate according to the treatment regimen described above, using DMSO and PZQ as appropriate controls. Morphologies and motility were assessed by light microscopy, and dose-response curves were calculated using the primary readout of parasite attachment to tissue culture substrate in GraphPad Prism.
(§2) For drug treatment studies, 10 male adult worms (single or paired with females) were supplemented with either 0.1% DMSO or inhibitor (0.1% DMSO final). For all experiments assessing on-target effects of potential parasite […]
(§3) After 48 hr, male parasites were separated […]
(§4) further processing. Male worm samples were homogenized with a pestle in 50 µL lysis buffer containing 2X […]
(Roche, cOmplete Mini, EDTA-free Tablets) and 10 mM DTT. The lysates were then sonicated on high for 5 min (30 sec on, 30 sec off) using a Bioruptor UCD-200. […]
Compounds were tested from 100 μM – 1 nM. Values were calculated using Prism.

[2] = test system: HepG2 cells; experiment: HepG2 cytotoxicity assay (Cell Titer Glo 2.0); format: cell-based, Homo sapiens; details: 72 h
[3] = test system: adult S. mansoni; parameters: method as in PMID 32973031; details: adult parasites; cited from earlier work
[4] = test system: K48 polyubiquitinated proteins in adult S. mansoni; experiment: Western blot of K48 polyubiquitinated proteins in lysate of drug-treated worms; format: cell-based, Schistosoma mansoni; details: adult worm lysate after 48 h of treatment
Experimental: as §1
the activity of the desired compounds. Roughly 5 adult worm pairs were placed in 3mL Basch medium in a 12-well culture vessel, and incubated at 37° C, 5% CO2 for the length of the experiment. […]
as §2, §3, §4
(Roche, cOmplete Mini, EDTA-free Tablets) and 10 mM DTT. The lysates were then sonicated on high for 5 min (30 sec on, 30 sec off) using a Bioruptor UCD-200. Lysates were centrifuged for 5 min at 10,000 g to remove […]
debris. Total protein was measured using the Detergent Compatible Bradford Assay (Pierce). 50 µg of protein samples denatured in SDS Sample buffer (95°C for 5 min) were separated on a Bio-Rad 4-20% TGX Stain-Free gel along with Precision Plus Protein Dual Color Standards (Bio-Rad) as a marker. Proteins were then transferred to a nitrocellulose membrane (Bio-Rad). The membrane was blocked in a 1:5 solution of Li-Cor Odyssey Blocking buffer in PBST for 1 hr before being immunoblotted overnight at 4°C with 1:500 K48-linkage Specific […]
(1:10,000) (Developmental Studies Hybridoma Bank, JLA20) diluted in a 1:5 solution of Li-Cor Odyssey Blocking buffer in PBST. The membrane was washed 3x in TBST and then incubated in 1:5 Li-Cor Odyssey […]
in TBST 3x before being imaged on a LiCor Odyssey Infrared Imager. […]

[5] = target: S. mansoni p97 (Smp_018240) (Schistosoma mansoni, UniProt G4M0P7); format: biochemical; details: recombinant full-length enzyme, Kinase-Glo, 100 μM to 1 nM
Sequence of S. mansoni p97 (Smp_018240) (G4M0P7 entry or part of it): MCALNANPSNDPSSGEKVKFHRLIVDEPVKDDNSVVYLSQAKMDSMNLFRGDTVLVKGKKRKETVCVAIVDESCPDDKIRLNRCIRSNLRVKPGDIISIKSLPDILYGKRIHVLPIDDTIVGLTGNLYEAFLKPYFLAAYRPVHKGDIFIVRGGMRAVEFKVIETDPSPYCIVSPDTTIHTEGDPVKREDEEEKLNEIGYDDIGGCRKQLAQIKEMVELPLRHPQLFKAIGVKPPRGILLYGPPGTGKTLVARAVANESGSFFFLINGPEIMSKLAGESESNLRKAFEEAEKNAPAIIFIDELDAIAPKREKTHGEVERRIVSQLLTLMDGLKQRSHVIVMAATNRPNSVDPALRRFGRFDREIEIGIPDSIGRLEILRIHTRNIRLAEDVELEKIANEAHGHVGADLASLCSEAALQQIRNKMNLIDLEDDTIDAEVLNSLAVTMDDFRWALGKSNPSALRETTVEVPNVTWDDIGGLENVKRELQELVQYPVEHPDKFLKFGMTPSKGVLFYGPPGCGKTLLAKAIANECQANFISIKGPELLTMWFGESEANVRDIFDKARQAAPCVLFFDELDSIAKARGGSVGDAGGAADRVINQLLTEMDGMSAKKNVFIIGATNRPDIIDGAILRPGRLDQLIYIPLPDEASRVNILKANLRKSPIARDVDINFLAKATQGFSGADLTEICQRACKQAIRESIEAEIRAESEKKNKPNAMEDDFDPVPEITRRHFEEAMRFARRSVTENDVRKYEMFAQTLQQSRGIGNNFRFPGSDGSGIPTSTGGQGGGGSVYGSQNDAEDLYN
Experimental: Evaluation of p97’s ATPase activity and compound potency
For manual ATP consumption assays, 1 µM p97 was incubated with 1% DMSO or inhibitor (1% DMSO final) in assay buffer [50 mM Tris (pH 7.5), 20 mM MgCl2, 1 mM EDTA, 0.5 mM tris(2-carboxyethyl)phosphine (TCEP)] for 5 minutes prior to the addition of 20 µM ATP in a 384-well plate for a total reaction volume of 10 µL, and a final concentration of 500nM enzyme and 10 µM ATP. The reaction was allowed to proceed for 50 minutes at room temperature before adding equivalent volume of Kinase-Glo Plus reagent (Promega), and a further incubation of 10 minutes in the dark. Luminescence was read using a BioTek Synergy 2 plate reader […]
1 μM, 500 nM, 100 nM, 50 nM, 10 nM, 5 nM, 1 nM, and 0 nM) in triplicate, maintaining a concentration of 1% […]
were calculated using GraphPad Prism. […]

Row | Compound | EC50 ([1]; fraction of worms attached after 72 h drug treatment, refreshed every 24 h, kept until D5, 50 μM - 10 nM, read-out: S. mansoni EC50 (μM) on adult parasites) [µM] | GI50 ([2]; 50% growth inhibition normalized to time = 0) [nM] | IC50 ([2]; 50% growth inhibition relative to control) [nM] | concentration leading to parasite death in vitro [3] | accumulation of K48 polyubiquitinated proteins by western blot [4] | IC50 [5] [nM] | EC50 ([1]; adult worms in vitro, tested 50 μM to 10 nM, readout attachment to culture substrate, read-out: EC50 of commercial inhibitors of human orthologs on adult parasites) [µM]
1 | Cc1cc2c(C(N)=O)cccc2n1-c1nc2c(c(NCc3ccccc3)n1)COCC2 [CB-5083] | 0.36 | 310 | 410 | submicromolar concentrations | accumulation of proteins targeted for proteasome-mediated degradation |  | 
2 | Cc1cc(OCc2nnc(SC3CCCC3)n2-c2cccnc2)ccc1-c1ccc(S(C)(=O)=O)cc1 [NMS-873] |  |  |  | submicromolar concentrations | accumulation of proteins targeted for proteasome-mediated degradation | 230 ± 75 | 
3 | AGI-41998 |  |  |  |  |  |  | 0.71
